In patent publication US20250369863A1, “METHOD FOR DETERMINING A STATUS OF A CO-CULTURE” (Universiteit Antwerpen, priority 2022, published 2025):

Test system: co-culture of patient-derived pancreatic tumor organoids (TCO) and cancer associated fibroblast (SCT)
Experiment: co-culture of patient-derived pancreatic tumor organoids and cancer associated fibroblasts, stroma parameters from fluorescent images
Assay type: cell-based
Conditions: for stroma growth rate (normalized stromal growth rate): FIG. 5, FGF2 10 ng/ml; for stroma growth rate (normalized stromal growth rate) / stromal density of the micro-tumor / contractility: Nintedanib 0.5 μM; for stroma growth rate (normalized stromal growth rate) / stromal density of the micro-tumor: TGF-B 5 ng/ml; for stroma size (area): FIG. 6; for stroma size (area) / stromal size ratio: dynamic (over time) kinetic quantification; for stromal density of the micro-tumor: FIG. 10, static endpoint, compared to the control; for stromal density of the micro-tumor / contractility: FGF2 10 ng/mL; for contractility: FIGS. 7 and 8; for stromal size ratio: FIG. 9
Procedure: A co-culture was prepared of patient-derived pancreatic tumor organoids (TCO) and cancer associated fibroblast (SCT), wherein the TCO and the SCT were fluorescently labelled with the first and second fluorescent label respectively. First and second fluorescent images were recorded and the status of the sample was determined with and without contacting the sample with Nintedanib, TGFB or FGF2. Nintedanib is a known anti-fibrotic drug that inhibits fibroblast proliferation and motility. TGFB and FGF2 are growth factors that can stimulate fibroblast proliferation.

| Compound | stroma growth rate (normalized stromal growth rate) | stroma size (area) | stromal density of the micro-tumor | contractility | micro-tumor formation driven by activated fibroblasts | stromal size ratio | stromal size ratio (listed as Nintedanib) | motility (shown by contractility, stromal size ratio and stromal density (FIGS. 7 to 10)) |
| --- | --- | --- | --- | --- | --- | --- | --- | --- |
| FGF2: growth factor that can stimulate fibroblast proliferation | stimulated the strongest | stimulated the strongest | only had marginal effects | have been contracted together | – | – | – | – |
| TGFB | – | – | only had marginal effects | – | – | – | – | – |
| COC(=O)c1ccc2c(c1)NC(=O)/C2=C(\Nc1ccc(N(C)C(=O)CN2CCN(C)CC2)cc1)c1ccccc1 [nintedanib, Nintedanib] | inhibited | inhibited | reduced | lack of contractility | inhibited | reduced | inhibitory effect | inhibited |
